# Patent US6909014B2, “Intermediates for the synthesis of ether compounds” (Esperion Therapeutics, Inc., priority 1999, dated 2005)
# Columns and labels:
# [1] = test system: chow fed obese female Zucker rats; test: Experiments B, C, D, E: serum lipids, glucose, insulin, body and liver weight in obese female Zucker rats, 14 days; type: in vivo, rat
# Protocol: In a number of different experiments, illustrative compounds of the invention and troglitazone were administered daily at various doses to 10-week old chow fed obese female Zucker rats for 14 days in the morning by oral gavage in 1.5% carboxymethylcellulose/0.2% Tween-20 (dosing vehicle). Animals were weighed daily. Animals were allowed free access to rodent chow and water throughout the study. Blood glucose was determined after a 6-hour fast in the afternoon without anesthesia from a tail vein. Serum was also prepared from a blood sample subsequently obtained from the orbital venous plexus (with O2/CO2 anesthesia) prior to and after one week treatment and used lipid and insulin determinations. At two weeks, blood glucose was again determined after a 6-hour fast without anesthesia from a tail vein. Soon thereafter, animals were sacrificed by CO2 inhalation in the evening and cardiac blood serum was collected and assessed for various lipids and insulin. Body weight was determined daily prior to dosing and at the time of euthanasia.
# [2] = test system: LDL receptor deficient mice; test: Lipoprotein cholesterol profile in LDL receptor-deficient mice; type: in vivo; conditions: 300 mg/kg/day, one week; 4 chow-fed female mice (FIG. 17)
# From the text: The effect of Compound A on LDL levels in a murine model of homozygous familial hypercholesterolemia (Ishibashi et al., 1993, J. Clin. Invest. 92:883-893; Ishibashi et al., 1994, J. Clin. Invest. 93:1885-1893) was studied. LDL receptor-deficient mice have elevated LDL cholesterol relative to wild type mice when fed a chow diet. When fed cholesterol-enriched diets, these mice develop atherosclerosis.
# [3] = test system: chow fed male Sprague-Dawley rats; test: Serum lipids, lipoproteins, apolipoproteins and weight gain in chow fed male Sprague-Dawley rats after seven daily oral doses; type: in vivo, rat; conditions: 100 mg/kg, seven days, vs vehicle
# Protocol: Illustrative compounds of the invention were administered daily at a dose of 100 mg/kg to chow fed male Sprague-Dawley rats for seven days in the morning by oral gavage in 1.5% carboxymethylcellulose/0.2% Tween-20 (dosing vehicle). Animals were weighed daily. Animals were allowed free access to rodent chow and water throughout the study. After the seventh dose, animals were sacrificed in the evening and blood serum was assayed for lipoprotein cholesterol profiles, serum triglycerides, total cholesterol VLDL, LDL, and HDL cholesterol, and the ratio of HDL cholesterol to that of VLDL plus LDL cholesterol, apolipoproteins A-I, C-II, C-III, and E by immunoelectrophoresis, and percent weight gain.
# The five compounds were tested in two separate experiments. In each experiment, the experimental data were normalized against a control group of rats which received the dosing vehicle alone.
# female obese Zucker rats = test: Experiment A: serum lipids, glucose, non-esterified fatty acids and weight gain in obese female Zucker rats, seven days; type: in vivo, rat; conditions: Compound A 86 mg/kg, one week
# Protocol: Dosing vehicle, Compound A (86 mg/kg of body weight) or troglitazone (120 mg/kg of body weight) was administered to eight week old female obese Zucker rats daily for seven days in the morning by oral gavage in 1.5% carboxymethylcellulose/0.2% Tween-20. Troglitazone was obtained commercially. Finely crushed tablets were suspended in vehicle for dosing. Orbital blood samples were obtained following a six-hour fast prior to the initial dose and also following the seventh dose.
# Blood serum was assayed for total cholesterol and triglycerides (FIG. 5), lipoprotein cholesterol profiles (FIG. 6), VLDL plus LDL cholesterol combined (also referred to as apo B containing lipoprotein cholesterol or non-HDL cholesterol), HDL cholesterol, and the ratio of HDL cholesterol to that of VLDL plus LDL cholesterol (FIG. 7), serum glucose, and non-esterified fatty acids (FIG. 8), and percent weight gain (FIG. 9). […] In particular, Compound A caused a marked elevation in HDL cholesterol after one week of treatment. Using the serum total cholesterol values (FIG. 5A) and the lipoprotein cholesterol distribution (FIG. 6), the amount of cholesterol associated with non-HDL (i.e., VLDL plus LDL) and HDL were determined (FIG. 7). […] In contrast, troglitazone reduced non-HDL and HDL cholesterol by 67% and 4%, respectively.
# [4] = test system: hepatocytes isolated from a male Sprague-Dawley rat; test: Synthesis of non-saponified and saponified lipids (14C-acetate incorporation) in hepatocytes; type: cell-based; conditions: 100 μM, 14C-acetate labeling 2 hr (FIG. 18)
# Protocol: A male Sprague-Dawley rat was anesthetized by administration of sodium pentobarbitol by intraparitoneal injection at 50 mg/kg. In situ perfusion of the liver was performed as follows. […] To digest the liver, DSC solution (6.7 mM KCl, 143 mM NaCl, 9.2 mM Na HEPES, 5 mM CaCl2-2H2O, 1.7 mM Fructose, 0.029 mM Phenol red, 0.2% BSA, 100 U/ml collagenase Type I, 93 U/ml Hyaluronidase, 160 BAEE/ml trypsin inhibitor, pH 7.5) was perfused through the liver at a flow rate of 30 ml/min for 6 minutes at a temperature of 37° C. After digestion, cells were dispersed in a solution of DMEM-(DMEM containing 2 mM GlutMax-1, 0.2% BSA, 5% FBS, 12 nM insulin, 1.2 μM hydrocortisone) to stop the digestion process. The crude cell suspension was filtered through three layers of stainless steel mesh with pore sizes of 250, 106, and 75 μm respectively. Filtered cells were centrifuged at 50×g for two minutes and the supernatant discarded. The resulting cell pellet was resuspended in DMEM and centrifuged again. This final cell pellet was resuspended in DMEM+HS solution (DMEM containing 2 mM GlutMax-1, 20 nM delta-aminolevulinic acid, 17.4 mM MEM non-essential amino acids, 20% FBS, 12 nM insulin, 1.2 μM hydrocortisone) and plated to form monolayer cultures at a density of 100×10^3 cells/cm^2 on collagen coated culture dishes. […]
compound,measurement,setting,value
"CC(C)(CO)CCCCOCCCCC(C)(C)CO [Compound A, 6-(6-hydroxy-5,5-dimethylhexyloxy)-2,2-dimethyl-hexan-1-ol]",Body Weight Gain (% of Pre-treatment),"[1]; Experiment C, 1 mg/kg/day, 14 days, control +16.7",+16.7 % of Pre-treatment
same,Triglycerides (% of Pre-treatment),"[1]; Experiment C, 1 mg/kg/day, 14 days, control −11.2",−8.8 % of Pre-treatment
same,Body Weight Gain (% of Pre-treatment),"[1]; Experiment C, 3 mg/kg/day, 14 days, control +16.7",+17.5 % of Pre-treatment
same,Triglycerides (% of Pre-treatment),"[1]; Experiment C, 3 mg/kg/day, 14 days, control −11.2",−24.6 % of Pre-treatment
same,HDL-Cholesterol (% of Pretreatment),"[1]; Experiment C, 3 mg/kg/day, 14 days, control −29.8",−3.7 % of Pretreatment
same,Body Weight Gain (% of Pre-treatment),"[1]; Experiment C, 10 mg/kg/day, 14 days, control +16.7",+10.7 % of Pre-treatment
same,Triglycerides (% of Pre-treatment),"[1]; Experiment C, 10 mg/kg/day, 14 days, control −11.2",−50.9 % of Pre-treatment
same,Body Weight Gain (% of Pre-treatment),"[1]; Experiment C, 30 mg/kg/day, 14 days, control +16.7",+11.3 % of Pre-treatment
same,Triglycerides (% of Pre-treatment),"[1]; Experiment C, 30 mg/kg/day, 14 days, control −11.2",−42.0 % of Pre-treatment
same,Triglycerides (% of Pre-treatment),"[1]; Experiment C, 100 mg/kg/day, 14 days, control −11.2",−57.0 % of Pre-treatment
same,glucose to insulin ratio (in words),"[1]; Experiment C, Compound A 100 mg/kg (FIG. 14)",reduced
same,blood glucose (in words),"[1]; Experiment C, Compound A 100 mg/kg, troglitazone 40 mg/kg, fasted rats (FIG. 12)",tendency to lower blood glucose
same,reduction of serum triglycerides (in words),"[1]; Experiment C, Compound A 1-100 mg/kg, troglitazone 12, 40, 120 mg/kg (FIG. 10)",reduced serum triglyceride levels at all doses
same,glucose to insulin ratio (in words),"[1]; Experiment C, Compound A 1 and 3 mg/kg, two weeks (FIG. 14)",declined by approximately ⅓ to ½
same,weekly percent weight gain (in words),"[1]; Experiment C, Compound A 10, 30 and 100 mg/kg, after one and two weeks (FIG. 15)",markedly reduced
same,glucose to insulin ratio (in words),"[1]; Experiment C, Compound A 10 and 30 mg/kg (FIG. 14)",sustained at pretreatment levels
same,serum insulin (in words),"[1]; Experiment C, higher Compound A doses (FIG. 13)",sharp rise in serum insulin was largely curtailed or minimized
same,Triglycerides (% of Pre-treatment),"[1]; Experiment D, 10 mg/kg/day, 14 days, control +1.6",−11.1 % of Pre-treatment
same,Body Weight Gain (% of Pre-treatment),"[1]; Experiment D, 10 mg/kg/day, 14 days, control +10.6",+2.2 % of Pre-treatment
same,Triglycerides (% of Pre-treatment),"[1]; Experiment D, 100 mg/kg/day, 14 days, control +1.6",−62.9 % of Pre-treatment
same,Body Weight Gain (% of Pre-treatment),"[1]; Experiment D, 100 mg/kg/day, 14 days, control +10.6",+4.5 % of Pre-treatment
same,Non HDL-Cholesterol (% of Pretreatment),"[1]; Experiment D, 100 mg/kg/day, 14 days, control +15.2",+7.5 % of Pretreatment
same,Triglycerides (% of Pre-treatment),"[1]; Experiment E, 100 mg/kg/day, 14 days, control +12.0",−43.2 % of Pre-treatment
same,Body Weight Gain (% of Pre-treatment),"[1]; Experiment E, 100 mg/kg/day, 14 days, control +21.9",+19.1 % of Pre-treatment
same,Non HDL-Cholesterol (% of Pretreatment),"[1]; Experiment E, 100 mg/kg/day, 14 days, control −13.1",+7.2 % of Pretreatment
same,HDL (in words),[2],HDL elevation in all treated mice
same,LDL cholesterol (in words),[2],rapid and significant reduction in LDL cholesterol
same,change in VLDL cholesterol,[3],no change
same,serum glucose (in words),female obese Zucker rats,did not induce a hypoglycemic state
"CC(C)(CCCCOCCCCC(C)(C)OP(=O)(O)O)OP(=O)([O-])[O-].[Na+].[Na+] [Compound B, phosphoric acid mono-(1,1-dimethyl-5-(5-methyl-5-phosphonooxy-hexyloxy)-pentyl) ester sodium salt]",Body Weight Gain (% of Pre-treatment),"[1]; Experiment B, 100 mg/kg/day, 14 days, control +10.7",+12.0 % of Pre-treatment
same,Triglycerides (% of Pre-treatment),"[1]; Experiment B, 100 mg/kg/day, 14 days, control −31.9",+24.6 % of Pre-treatment
"CC(C)(CCCOCCCC(C)(C)OP(=O)(OCc1ccccc1)OCc1ccccc1)OP(=O)(OCc1ccccc1)OCc1ccccc1 [Compound E, phosphoric acid dibenzyl ester 4-(4-(bis-benzyloxy-phosphoryloxy)-4-methyl-pentyloxy)-1,1-dimethyl-butyl ester]",rate of saponified fatty acid synthesis (in words),[4],reduced the rates of saponified fatty acid synthesis
"CC(C)(O)CCCCOCCCCC(C)(C)O [Compound F, 6-(5-hydroxy-5-methyl-hexyloxy)-2-methyl-hexan-2-ol]",rate of saponified fatty acid synthesis (in words),[4],reduced the rates of saponified fatty acid synthesis
